Test results: patent US20250179047A1, “5-[7-(3,4-DIHYDRO-1H-ISOQUINOLINE-2-CARBONYL)-1,2,3,4 TETRAHYDROISOQUINOLIN-6-YL]-1H-PYRROLE-3-CARBOXAMIDE DERIVATIVES, PHARMACEUTICAL COMPOSITIONS CONTAINING THEM AND THEIR USES AS PRO-APOPTOTIC AGENTS” (LES LABORATOIRES SERVIER, priority 2022, published 2025)

Key:
KMS12PE Bcl2 D103Y = experiment: In vitro cytotoxicity CellTiterGlo 72 h, KMS12PE Bcl2 D103Y; assay type: cell-based; settings: Homo sapiens, KMS-12-PE, read-out: C50 nM, KMS12PE Bcl2 D103Y
Method: (§1) KMS-12-PE (ACC 606) were purchased from the Leibniz-Institute DSMZ (Braunschweig, Germany) and were grown at 37° C. in a humidified atmosphere with 5% CO2 in media recommended by the suppliers. Lentiviral particles containing Bcl-2 wild type (also named “Bcl2 WT”), Bcl-2 mutated on G101V (also named “Bcl2 G101V”), Bcl-2 mutated on D103Y (also named “Bcl2 D103Y”), Bcl-2 mutated on D103V (also named “Bcl2 D103V”), Bcl-2 mutated on D103E (also named “Bcl2 D103E”), Bcl-2 mutated on F104I (also named “Bcl2 F104I”), Bcl-2 mutated on F104L (also named “Bcl2 F104L”), Bcl-2 mutated on D111A (also named “Bcl2 D111A”), Bcl-2 mutated on A113G (also named “Bcl2 A113G”), Bcl-2 mutated on R129L (also named “Bcl2 R129L”), Bcl-2 mutated on V156D (also named “Bcl2 V156D”) were cloned into pcLV-CMV-DEST-IRES-TagRFP. Lentiviral particles (1×10^6) were mixed with Polybrene at 8 μg/ml and transduced by spinoculation for 1 h at 32° C. and incubated overnight. After 8 days, TagRFP positive-cells were sorted by FACS. BCL2 expression was monitored by immunoblotting using anti-Flag and anti-BCL2 antibodies. Cells were seeded into 96-wells plates and treated with 1:3.16 serial dilution of compounds (9 different concentrations). Cell viability was assessed using CellTiterGlo reagent following treatment for 72 h. Results were normalized to the viability of cells without compounds (control wells). The C50 values were calculated using nonlinear regression algorithms in XCell software.

BCLXL WT = BCLXL WT (Homo sapiens (Human), UniProt Q07817); experiment: TR-FRET competitive binding assay, BCLXL WT; settings: for Ki: BCLXL WT, Ki determined from IC50, read-out: TR_FRET EKI BclxL; for TR_FRET EKI BCLxL/WT selectivty ratio: ratio Ki BCLxL / Ki BCL2 WT
BCLXL WT, sequence (Q07817 other isoform, or with tags, fused parts or gaps): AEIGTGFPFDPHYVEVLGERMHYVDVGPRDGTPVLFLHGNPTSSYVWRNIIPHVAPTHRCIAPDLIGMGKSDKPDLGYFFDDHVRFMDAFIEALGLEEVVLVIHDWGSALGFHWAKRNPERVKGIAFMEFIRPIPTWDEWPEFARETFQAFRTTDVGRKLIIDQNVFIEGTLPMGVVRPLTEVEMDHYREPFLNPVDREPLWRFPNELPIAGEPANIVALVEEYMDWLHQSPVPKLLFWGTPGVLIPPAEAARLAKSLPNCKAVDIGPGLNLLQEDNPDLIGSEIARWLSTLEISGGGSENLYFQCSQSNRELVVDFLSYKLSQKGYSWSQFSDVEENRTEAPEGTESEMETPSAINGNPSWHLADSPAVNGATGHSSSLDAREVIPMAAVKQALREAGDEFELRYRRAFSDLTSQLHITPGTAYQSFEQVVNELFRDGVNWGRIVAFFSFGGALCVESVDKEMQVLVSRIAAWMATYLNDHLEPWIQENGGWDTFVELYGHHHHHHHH
Outline: (§2)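 Terbium-labelled N-terminal Halo-fusion BCL2 or BCLXL (E. coli), 0.5 nM, competed against fluorescein-labelled PUMA peptide (2 or 20 nM) for 2 h at 23° C in 50 mM Hepes pH 7.5, 150 mM NaCl, 5% DMSO. TR-FRET 520/495 nm ratio gave IC50 by four-parameter fit; Ki derived from IC50.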

KMS12PE = experiment: In vitro cytotoxicity CellTiterGlo 72 h, KMS12PE; assay type: cell-based; settings: Homo sapiens, KMS-12-PE, read-out: C50 nM, KMS12PE
Method: as §1

KMS12PE Bcl2 A113G = experiment: In vitro cytotoxicity CellTiterGlo 72 h, KMS12PE Bcl2 A113G; assay type: cell-based; settings: Homo sapiens, KMS-12-PE, read-out: C50 nM, KMS12PE Bcl2 A113G
Method: as §1

BCL2 D111A = BCL2 D111A (Homo sapiens, UniProt P10415, D111A); experiment: TR-FRET competitive binding assay, BCL2 D111A; settings: Ki determined from IC50, read-out: TR_FRET EKI_Bcl2 D111A
Outline: as §2

KMS12PE Bcl2 F104I = experiment: In vitro cytotoxicity CellTiterGlo 72 h, KMS12PE Bcl2 F104I; assay type: cell-based; settings: Homo sapiens, KMS-12-PE, read-out: C50 nM, KMS12PE Bcl2 F104I
Method: as §1

BCL2 WT = BCL2 WT (Homo sapiens (Human), UniProt P10415); experiment: TR-FRET competitive binding assay, BCL2 WT; settings: Ki determined from IC50, read-out: TR_FRET EKI_Bcl2 WT
BCL2 WT, sequence (P10415 other isoform, or with tags, fused parts or gaps): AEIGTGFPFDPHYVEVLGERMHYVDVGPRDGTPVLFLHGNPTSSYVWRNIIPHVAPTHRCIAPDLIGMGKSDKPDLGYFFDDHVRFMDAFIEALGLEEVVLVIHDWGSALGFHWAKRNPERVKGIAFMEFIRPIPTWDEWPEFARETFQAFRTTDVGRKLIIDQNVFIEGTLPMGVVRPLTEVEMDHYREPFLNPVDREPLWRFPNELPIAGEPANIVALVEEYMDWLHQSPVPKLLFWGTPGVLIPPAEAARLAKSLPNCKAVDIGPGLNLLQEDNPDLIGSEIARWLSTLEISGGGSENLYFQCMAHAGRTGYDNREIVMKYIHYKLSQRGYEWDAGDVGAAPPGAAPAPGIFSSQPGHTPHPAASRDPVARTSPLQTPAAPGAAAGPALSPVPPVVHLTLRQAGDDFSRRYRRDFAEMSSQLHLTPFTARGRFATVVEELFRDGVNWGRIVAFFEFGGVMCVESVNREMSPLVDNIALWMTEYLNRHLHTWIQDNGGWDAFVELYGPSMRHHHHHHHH
Outline: as §2

KMS12PE Bcl2 D103E = experiment: In vitro cytotoxicity CellTiterGlo 72 h, KMS12PE Bcl2 D103E; assay type: cell-based; settings: Homo sapiens, KMS-12-PE, read-out: C50 nM, KMS12PE Bcl2 D103E
Method: as §1

BCL2 F104I = BCL2 F104I (Homo sapiens, UniProt P10415, F104I); experiment: TR-FRET competitive binding assay, BCL2 F104I; settings: Ki determined from IC50, read-out: TR_FRET EKI_Bcl2 F104I
Outline: as §2

KMS12PE Bcl2 R129L = experiment: In vitro cytotoxicity CellTiterGlo 72 h, KMS12PE Bcl2 R129L; assay type: cell-based; settings: Homo sapiens, KMS-12-PE, read-out: C50 nM, KMS12PE Bcl2 R129L
Method: as §1

SMILES | IC50 (KMS12PE Bcl2 D103Y) [nM] | Ki (BCLXL WT) [nM] | TR_FRET EKI BCLxL/WT selectivty ratio (BCLXL WT) | IC50 (KMS12PE) [nM] | IC50 (KMS12PE Bcl2 A113G) [nM] | Ki (BCL2 D111A) [nM] | IC50 (KMS12PE Bcl2 F104I) [nM] | Ki (BCL2 WT) [nM] | IC50 (KMS12PE Bcl2 D103E) [nM] | Ki (BCL2 F104I) [nM] | IC50 (KMS12PE Bcl2 R129L) [nM]
Cc1c(N(C(=O)c2cc(-c3cc4c(cc3C(=O)N3Cc5ccccc5C[C@H]3CN3CCCCC3)CN(C(=O)Cc3ccc(OCCC5CCOCC5)cc3)CC4)n(C)c2C)c2ccc(O)cc2)cc(C#N)n1C [Example 66, N-(5-cyano-1,2-dimethylpyrrol-3-yl)-N-(4-hydroxyphenyl)-1,2-dimethyl-5-[2-(2-{4-[2-(oxan-4-yl)ethoxy]phenyl}acetyl)-7-{[(3S)-3-(piperidin-1-ylmethyl)-3,4-dihydro-1H-isoquinolin-2-yl]carbonyl}-3,4-dihydro-1H-isoquinolin-6-yl]pyrrole-3-carboxamide] | 1.3 | 4 | 47.6 | 0.2 | 2.89 | 0.23 | 65.2 | 0.08 | 1.89 | 0.47 | 1.32
Cc1c(C(=O)N(c2ccc(O)cc2)c2cc(C#N)n(C(F)F)c2C)cc(-c2cc3c(cc2C(=O)N2Cc4ccccc4C[C@H]2CN2CCCCC2)CN(C(=O)Cc2ccc(OCCN4CCOCC4)cc2)CC3)n1C [Example 77] | 3.31 | 8 | 135.6 | 0.42 | 7.86 | 0.2 | 156 | 0.06 | 4.69 | 0.47 | 2.81
Cc1c(C(=O)N(c2ccc(O)cc2)c2cc(C#N)n(C(F)F)c2C)cc(-c2cc3c(cc2C(=O)N2Cc4ccccc4C[C@H]2CN2CCCCC2)CN(C(=O)Cc2ccc(OCCN4CCOCC4)cc2F)CC3)n1C [Example 78, N-[5-cyano-1-(difluoromethyl)-2-methylpyrrol-3-yl]-5-[2-(2-{2-fluoro-4-[2-(morpholin-4-yl)ethoxy]phenyl}acetyl)-7-{[(3S)-3-(piperidin-1-ylmethyl)-3,4-dihydro-1H-isoquinolin-2-yl]carbonyl}-3,4-dihydro-1H-isoquinolin-6-yl]-N-(4-hydroxyphenyl)-1,2-dimethylpyrrole-3-carboxamide] | 1 | 7.1 | 134.0 | 0.12 | 2.11 | 0.26 | 21.8 | 0.05 | 1.18 | 0.43 | 0.9
Cc1c(N(C(=O)c2cc(-c3cc4c(cc3C(=O)N3Cc5ccccc5C[C@H]3CN3CCC[C@H](C)C3)CN(C(=O)Cc3ccc(OCCN5CCOCC5)cc3F)CC4)n(C)c2C)c2ccc(O)cc2)cc(C#N)n1C [Example 107] | 0.97 | 7.8 | 87.6 | 0.15 | 2.82 | 0.22 | 23.6 | 0.09 | 1.22 | 0.34 | 1.12
